# Measurements as given in patent US20250034159A1, “INHIBITORS OF EPIDERMAL GROWTH FACTOR RECEPTOR” (ORIC Pharmaceuticals, Inc., priority 2021, published 2025).
# Read-outs that look alike come from different tables or passages of the source.
# Key:
# Ba/F3_EGFR WT cells = test: Biological Activity Assay D: BaF3 cell proliferation assay, EGFR wild-type (BaF3 WT); format: cell-based; conditions: Ba/F3 EGFR, read-out: BaF3 WT IC50
# [1] = molecular target: recombinant human EGFR exon 19 deletion/C797S double mutant protein (Homo sapiens (Human), UniProt P00533, C797S/DEL746-750); test: Biological Activity Assay C: biochemical assay against EGFR exon 19 deletion/C797S protein (EGFR d19/CS)
# recombinant human EGFR exon 19 deletion/C797S double mutant protein, sequence (P00533 other isoform, or with tags, fused parts or gaps C797S/del 1-668/del 746-750 limits assumed): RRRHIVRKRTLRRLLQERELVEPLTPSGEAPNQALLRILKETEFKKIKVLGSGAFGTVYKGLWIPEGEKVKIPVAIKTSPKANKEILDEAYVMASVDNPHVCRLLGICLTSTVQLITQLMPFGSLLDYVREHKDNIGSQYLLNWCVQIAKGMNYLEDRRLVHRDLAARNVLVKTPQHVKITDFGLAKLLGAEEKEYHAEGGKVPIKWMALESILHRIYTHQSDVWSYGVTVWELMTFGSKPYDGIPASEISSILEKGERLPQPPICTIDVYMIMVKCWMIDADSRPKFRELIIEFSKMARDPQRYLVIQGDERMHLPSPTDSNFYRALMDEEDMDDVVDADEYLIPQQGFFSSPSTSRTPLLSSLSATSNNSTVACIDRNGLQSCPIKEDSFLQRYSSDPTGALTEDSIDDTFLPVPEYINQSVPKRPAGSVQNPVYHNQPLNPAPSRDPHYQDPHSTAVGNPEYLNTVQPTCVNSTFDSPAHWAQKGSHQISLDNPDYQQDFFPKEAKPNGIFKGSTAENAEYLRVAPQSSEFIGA
# How it was run: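 IC50 values were fitted with a 4-parameter model to reaction slopes taken from 90 kinetic reads spaced 120 s apart. The Phosphosens sensor/ATP working solution was 40 uM/4 mM, and compound was dosed as 16-point dilutions at 2.5% final DMSO.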
# BaF3_EGFR d19/CS cells = test: Biological Activity Assay D: BaF3 cell proliferation assay, EGFR exon 19 deletion/C797S (BaF3 d19/CS); format: cell-based; conditions: Ba/F3 EGFR, read-out: BaF3 d19/CS IC50
# BaF3_EGFR LR/CS cells = test: Biological Activity Assay D: BaF3 cell proliferation assay, EGFR L858R/C797S mutant (BaF3 LR/CS); format: cell-based; conditions: Ba/F3 EGFR, read-out: BaF3 LR/CS IC50
# [2] = Ba/F3_EGFR WT cells, ~72 hours, CellTiter-Glo
# [3] = BaF3_EGFR d19/CS cells, ~72 hours, CellTiter-Glo
# [4] = BaF3_EGFR LR/CS cells, ~72 hours, CellTiter-Glo
IC50 (Ba/F3_EGFR WT cells; [2]),IC50 [1],IC50 (BaF3_EGFR d19/CS cells; [3]),IC50 (BaF3_EGFR LR/CS cells; [4]),Structure (SMILES),IC50 (Ba/F3_EGFR WT cells; 72 h),IC50 (BaF3_EGFR d19/CS cells; 72 h),IC50 (BaF3_EGFR LR/CS cells; 72 h)
1980 nM,0.307 nM,40.7 nM,62.9 nM,"Cc1nc(-c2cc3c(-c4cn(CC(C)(C)O)nc4-c4ccc(F)cc4)ncnc3o2)ccc1F [Example 282, 1-{4-[6-(5-fluoro-6-methylpyridin-2-yl)furo[2,3-d]pyrimidin-4-yl]-3-(4-fluorophenyl)-1H-pyrazol-1-yl}-2-methylpropan-2-ol]",,,
2110 nM,0.27 nM,97 nM,79.3 nM,"CS(=O)(=O)N1CC=C(c2cc3c(-c4cn(C5CS(=O)(=O)C5)nc4-c4ccc(F)cc4)ncnc3o2)CC1 [Example 181, 3-[3-(4-fluorophenyl)-4-{6-[1-(methanesulfonyl)-1,2,3,6-tetrahydropyridin-4-yl]furo[2,3-d]pyrimidin-4-yl}-1H-pyrazol-1-yl]-1λ6-thietane-1,1-dione]",,,
1940 nM,0.44 nM,160 nM,296 nM,"CC(=O)N1CCC=C(c2cc3c(-c4cn(C5CS(=O)(=O)C5)nc4-c4ccc(F)cc4)ncnc3o2)C1 [Example 209, 3-{4-[6-(1-acetyl-1,2,5,6-tetrahydropyridin-3-yl)furo[2,3-d]pyrimidin-4-yl]-3-(4-fluorophenyl)-1H-pyrazol-1-yl}-1λ6-thietane-1,1-dione]",,,
272 nM,0.123 nM,4.31 nM,5.14 nM,"Cn1cnc(-c2cc3c(-c4cn([C@H]5C[C@H](O)C5)nc4-c4ccc(F)cc4)ncnc3o2)c1 [Example 278, (1r,3r)-3-{3-(4-fluorophenyl)-4-[6-(1-methyl-1H-imidazol-4-yl)furo[2,3-d]pyrimidin-4-yl]-1H-pyrazol-1-yl}cyclobutan-1-ol]",,,
2500 nM,0.69 nM,71.3 nM,40.5 nM,"Fc1ccc(-c2nn([C@H]3CCCOC3)cc2-c2ncnc3oc(-c4ccccc4)cc23)cc1 (single isomer, unassigned) [Example 137]",,,
677 nM,0.07 nM,13.5 nM,19 nM,"COc1ccc(-c2cc3c(-c4cn(CC(C)(C)O)nc4-c4ccc(F)cc4)ncnc3o2)nc1 [Example 276, 1-{3-(4-fluorophenyl)-4-[6-(5-methoxypyridin-2-yl)furo[2,3-d]pyrimidin-4-yl]-1H-pyrazol-1-yl}-2-methylpropan-2-ol]",,,
2920 nM,0.39 nM,161 nM,128 nM,"O=C(c1ccccc1)N1CC=C(c2cc3c(-c4cn(C5CS(=O)(=O)C5)nc4-c4ccc(F)cc4)ncnc3o2)CC1 [Example 180, 3-{4-[6-(1-benzoyl-1,2,3,6-tetrahydropyridin-4-yl)furo[2,3-d]pyrimidin-4-yl]-3-(4-fluorophenyl)-1H-pyrazol-1-yl}-1λ6-thietane-1,1-dione]",,,
3320 nM,1.42 nM,69.9 nM,42.2 nM,"Fc1ccc(-c2nn([C@H]3C[C@@H](F)C3)cc2-c2ncnc3oc(-c4ccccc4)cc23)cc1 [Example 150, 4-{1-[(1s,3s)-3-fluorocyclobutyl]-3-(4-fluorophenyl)-1H-pyrazol-4-yl}-6-phenylfuro[2,3-d]pyrimidine]",,,
696 nM,0.05 nM,9.26 nM,3.54 nM,"Cn1cc(-c2cc3c(-c4cn(C5CS(=O)(=O)C5)nc4-c4ccc(F)cc4)ncnc3o2)cn1 [Example 250, 3-{3-(4-fluorophenyl)-4-[6-(1-methyl-1H-pyrazol-4-yl)furo[2,3-d]pyrimidin-4-yl]-1H-pyrazol-1-yl}-16-thietane-1,1-dione]",,,
414 nM,0.104 nM,13.3 nM,16.5 nM,"N#CCCn1cc(-c2ncnc3oc(-c4cccnc4)cc23)c(-c2ccc(F)cc2)n1 [Example 268, 3-{3-(4-fluorophenyl)-4-[6-(pyridin-3-yl)furo[2,3-d]pyrimidin-4-yl]-1H-pyrazol-1-yl}propanenitrile]",,,
235 nM,0.153 nM,6.17 nM,2.36 nM,"Cn1cnc(-c2cc3c(-c4cn(CCC(F)F)nc4-c4ccc(F)cc4)ncnc3o2)c1 [Example 263, 4-[1-(3,3-difluoropropyl)-3-(4-fluorophenyl)-1H-pyrazol-4-yl]-6-(1-methyl-1H-imidazol-4-yl)furo[2,3-d]pyrimidine]",,,
2350 nM,1.48 nM,512 nM,219 nM,"CC1(C)CC(n2cc(-c3ncnc4oc(-c5ccccc5)cc34)c(-c3ccc(F)cc3)n2)CCO1 (stereo not shown) [Example 202, 4-[1-(2,2-dimethyloxan-4-yl)-3-(4-fluorophenyl)-1H-pyrazol-4-yl]-6-phenylfuro[2,3-d]pyrimidine]",,,
663 nM,0.38 nM,94.3 nM,59.8 nM,"CNC(=O)Cn1cc(-c2ncnc3oc(-c4ccccc4)cc23)c(-c2ccc(F)cc2)n1 [Example 143, 2-[3-(4-Fluorophenyl)-4-(6-phenylfuro[2,3-d]pyrimidin-4-yl)-1H-pyrazol-1-yl]-N-methylacetamide]",,,
7880 nM,4.18 nM,525 nM,928 nM,"CC(C)(C)OC(=O)N1CCC=C(c2cc3c(-c4cn(C5CS(=O)(=O)C5)nc4-c4ccc(F)cc4)ncnc3o2)C1 [Example 146, tert-butyl 5-{4-[1-(1,1-dioxo-1λ6-thietan-3-yl)-3-(4-fluorophenyl)-1H-pyrazol-4-yl]furo[2,3-d]pyrimidin-6-yl}-3,6-dihydropyridine-1(2H)-carboxylate]",,,
2540 nM,0.36 nM,140 nM,134 nM,"NC(=O)c1cccc(-c2cc3c(-c4cn(C5CS(=O)(=O)C5)nc4-c4ccc(F)cc4)ncnc3o2)c1 [Example 176, 3-{4-[1-(1,1-dioxo-1λ6-thietan-3-yl)-3-(4-fluorophenyl)-1H-pyrazol-4-yl]furo[2,3-d]pyrimidin-6-yl}benzamide]",,,
9020 nM,3.36 nM,589 nM,1240 nM,"O=S1(=O)CC(n2cc(-c3ncnc4oc(-c5cccnn5)cc34)c(-c3ccc(F)cc3)n2)C1 [Example 187, 3-{3-(4-fluorophenyl)-4-[6-(pyridazin-3-yl)furo[2,3-d]pyrimidin-4-yl]-1H-pyrazol-1-yl}-1λ6-thietane-1,1-dione]",,,
2510 nM,0.88 nM,303 nM,136 nM,"C[C@H]1OCC[C@@H]1n1cc(-c2ncnc3oc(-c4ccccc4)cc23)c(-c2ccc(F)cc2)n1 (single isomer, unassigned) [Example 214]",,,
565 nM,0.14 nM,13.1 nM,4.93 nM,"N=S1(=O)CCC(n2cc(-c3ncnc4oc(-c5ccccc5)cc34)c(-c3ccc(F)cc3)n2)C1 (stereo not shown) [Example 161, 3-[3-(4-fluorophenyl)-4-(6-phenylfuro[2,3-d]pyrimidin-4-yl)-1H-pyrazol-1-yl]-1-imino-1λ6-thiolan-1-one]",,,
2070 nM,0.62 nM,52.1 nM,31 nM,"CC1(C)C[C@H](n2cc(-c3ncnc4oc(-c5ccccc5)cc34)c(-c3ccc(F)cc3)n2)CO1 (single isomer, unassigned) [Example 238]",,,
4390 nM,3.26 nM,633 nM,140 nM,"Fc1ccc(-c2nn(C3CCCCC3(F)F)cc2-c2ncnc3oc(-c4ccccc4)cc23)cc1 (stereo not shown) [Example 207, 4-[1-(2,2-difluorocyclohexyl)-3-(4-fluorophenyl)-1H-pyrazol-4-yl]-6-phenylfuro[2,3-d]pyrimidine]",,,
4560 nM,2.13 nM,384 nM,667 nM,"CN(C)C(=O)c1ccccc1-c1cc2c(-c3cn(C4CS(=O)(=O)C4)nc3-c3ccc(F)cc3)ncnc2o1 [Example 228, 2-{4-[1-(1,1-dioxo-1λ6-thietan-3-yl)-3-(4-fluorophenyl)-1H-pyrazol-4-yl]furo[2,3-d]pyrimidin-6-yl}-N,N-dimethylbenzamide]",,,
1360 nM,0.09 nM,26.9 nM,8.8 nM,"N=[S@@]1(=O)CC[C@@H](n2cc(-c3ncnc4oc(-c5ccccc5)cc34)c(-c3ccc(F)cc3)n2)C1 (single isomer, unassigned) [Example 247]",,,
876 nM,0.06 nM,26.9 nM,10.6 nM,"N=[S@]1(=O)CC[C@H](n2cc(-c3ncnc4oc(-c5ccccc5)cc34)c(-c3ccc(F)cc3)n2)C1 (single isomer, unassigned) [Example 246]",,,
2550 nM,0.42 nM,92.7 nM,100 nM,"O=S1(=O)CC(n2cc(-c3ncnc4oc(-c5nccs5)cc34)c(-c3ccc(F)cc3)n2)C1 [Example 248, 3-{3-(4-fluorophenyl)-4-[6-(1,3-thiazol-2-yl)furo[2,3-d]pyrimidin-4-yl]-1H-pyrazol-1-yl}-16-thietane-1,1-dione]",,,

Structure (SMILES),IC50 (Ba/F3_EGFR WT cells; [2]),IC50 [1],IC50 (BaF3_EGFR d19/CS cells; [3]),IC50 (BaF3_EGFR LR/CS cells; [4]),IC50 (Ba/F3_EGFR WT cells; 72 h),IC50 (BaF3_EGFR d19/CS cells; 72 h),IC50 (BaF3_EGFR LR/CS cells; 72 h)
"Cc1c(-c2cc3c(-c4cn(CC(C)(C)O)nc4-c4ccc(F)cc4)ncnc3o2)ncn1C [Example 272, 1-{4-[6-(1,5-dimethyl-1H-imidazol-4-yl)furo[2,3-d]pyrimidin-4-yl]-3-(4-fluorophenyl)-1H-pyrazol-1-yl}-2-methylpropan-2-ol]",,0.486 nM,,,668 nM,15.7 nM,13.5 nM
